From patent US9012403B2, “Peptides as active agents to stabilize biological barriers” (XiberScience GmbH, priority 2010, dated 2015)
Marks after values point to notes of the source that are not given here.

How the values were obtained:
GEF [1] = assay: GEF-activity in membrane fractions of Caco-2 cells (RhoGEF Exchange Assay); format: cell-based; details: for GEF-activity, relative values compared to unstimulated control (Mean): CaCo-2, PMA 1 μg/ml, with or without peptide 50 μg/ml
Description: (§1) To measure the GEF-inhibitory effect, the following cell lines were used: Caco-2 (epithelial cells from adeno-carcinoma), ECV304 (epithelial cells from bladder carcinoma) and HpMec (endothelial cells, immortalized pulmonary micro-vascular cells). All cells were grown at standard conditions (37° C., 5% CO2 and 95% relative humidity (rH)). Culture Medium used for Caco-2: DMEM+1 mM sodium pyruvate+20% FCS+1% Penicillin Streptomycin; for ECV 304: RPMI 1640+10% FCS+1% Penicillin Streptomycin; and for HpMec: IMDM+25 mM Hepes+10% Human Serum+1% Penicillin Streptomycin+1% L-Glutamine+ECGS/Heparin 2 ml. 4 h before the experiment, cells were starved by serum withdrawal. To induce GEF-activity, cells were stimulated with thrombin, lipopolysaccharide (LPS) or PMA for the indicated time in presence or absence of 50 μg/ml XIB1-a or XIB1-b. After stimulation, membrane fractions were prepared by using the commercial available “Compartemental Protein Extraction Kit” from Biochain institutes. Membrane fractions were prepared according to the manufacturer instructions. GEF-activity in membrane lysates was determined by using “RhoGEF Exchange Assay Biochem Kit” from Cytoskeleton Inc. according to manufacturer instructions. GEF-activity was measured as fluorescence at using the Fluoroskan Ascent FL 2.6 from Thermo Electron Corporation. The excitation Filter wavelength was set at 355 nm and the emission filter wavelength at 460 nm.

GTP-bound RhoA [2] = assay: GTP-associated active RhoA in Caco-2 membrane fraction (western blot); format: cell-based; details: for GTP-bound RhoA, relative values compared to unstimulated control (Mean): CaCo-2, PMA 1 μg/ml, with or without peptide 50 μg/ml; for increase of RhoA-activity: CaCo-2 cells, PMA-stimulus
Description: (§2) To measure the GTP-associated active RhoA, the following cell lines were used: Caco-2, ECV304 and HpMec. All cells were grown at standard conditions (37° C., 5% CO2 and 95% rH). 4 h before the experiment, cells were starved by serum withdrawal. To induce GEF-activity, cells were stimulated with thrombin, LPS or PMA for the indicated time in presence or absence of 50 μg/ml XIB1-a or XIB1-b. After stimulation, membrane fractions were prepared by using the commercial available “Compartemental Protein Extraction Kit” from Biochain Institutes. Membrane fractions were prepared according to the manufacturer instructions. The membrane fraction was separated on 15% polyacrylamide gel according to standard procedures of gel electrophoresis. The gels were afterwards blotted on a nitrocellulose membrane according to standard procedures of western blotting. GTP-bound RhoA was detected using RhoA-GTP monoclonal antibody from NewEast Inc. in a dilution of 1:5000. Protein bands were analyzed with the Dolphin-1D Gel analysis system (Wealtec).

[3] = test system: Phosphorylated Myosin Light Chain (MLC) and actin stress fibers; assay: MLC phosphorylation and actin stress fiber formation in Caco-2 cells (microscopy score); format: cell-based; details: CaCo-2, PMA 1 μg/ml, with or without peptide 50 μg/ml
Description: (§3) To measure MLC phosphorylation and actin stress fiber formation, the following cell lines were used: Caco-2, ECV304 and HpMec. All cells were grown at standard conditions (37° C., 5% CO2 and 95% rH). Culture Medium used: for Caco-2: DMEM+1 mM sodium pyruvate+20% FCS+1% Penicillin Streptomycin; for ECV 304: RPMI 1640+10% FCS+1% Penicillin Streptomycin; and for HpMec: IMDM+25 mM Hepes+10% Human Serum+1% Penicillin Streptomycin+1% L-Glutamine+ECGS/Heparin 2 ml. 4 h before the experiment, cells were starved by serum withdrawal. To induce GEF-activity, cells were stimulated with thrombin, LPS or PMA for the indicated time in presence or absence of 50 μg/ml XIB1-a or XIB1-b. After stimulation, cells were fixed using 4% PFA. Phospho MLC was detected by using the “rabbit anti phosphor-myosin light chain antibody” from Chemicon in a concentration of 3 μl/ml in PBS (Gibco) supplemented with 0.1% Triton X-100. As detection antibody, the Alexa 448 tagged “anti Rabbit IgG Antibody” from Invitrogen was used in a concentration of 0.5 μl/ml in PBS (Gibco) supplemented with 0.1% Triton X-100. Aktin was detected using TRITC-labeled Phalloidin in a concentration of 0.5 μl/ml in PBS (Gibco) supplemented with 0.1% Triton. Stained cells were analyzed by using a Zeiss Laser Scan microscope. Evaluation of the cyto-skeletal activation was performed by 2 independent observers that were blinded to the conditions. Evaluation criteria were set as follows:
(§4) Actin: parallel actin bundles absent=0; distinct bundle formation=1; prominent parallel bundles=2; Phospho-MLC: present at cell poles=0; slight co-localization with actin bundles=1; prominent co-localization with actin bundles=2

[4] = test system: Ventilator-Induced Lung Injury (VILI); assay: Ventilator-induced lung injury (VILI) after LPS pre-challenge; format: in vivo; details: mice, LPS + high tidal volume ventilation (LPS-HTV); i.v. 4 mg/kg loading, then 1 mg/kg/h
Description: Experiments were performed with healthy C57BL/6 (aged 8-10 weeks, with weights ranging from 19-25 g). All interventions were performed according to the guide lines of AAALAC. All experiment were approved by the Ethic committee of the University of Amsterdam.
Mice were challenged with LPS (dosage: 50 μg per mouse) (or saline), via intranasal injection 2 h before initiation of mechanical ventilation, to induce lung injury.
XIB1-1b (or random peptide) was administered i.v. 10 min before start of mechanical ventilation (dosage: 4 mg/kg loading dose, followed administration i.v. injections 1 mg/kg/h.
A Y-tube connector with 1.0 mm outer diameter and 0.6 mm inner diameter was surgically inserted into the trachea under general anesthesia. Mice were placed in a supine position and connected to a ventilator. Mice were pressure-controlled ventilated with either an inspiratory pressure of 10 cm H2O (resulting in VT˜7.5 mL/kg; low VT, LVT) or an inspiratory pressure of 18 cm H2O (resulting in VT˜15 mL/kg; high VT, HVT). Positive end-expiratory pressure (PEEP) is set at 2 cm H2O with both MV-strategies. The fraction of inspired oxygen was kept at 0.5 throughout the experiment. The inspiration to expiration ratio was kept at 1:1 throughout the experiment.
BALF was obtained by instilling 3 times 0.5 mL aliquots of saline by a 22-gauge Abbocath-T catheter (Abbott, Sligo, Ireland) into the trachea. Approximately, 1.0 mL of BALF was retrieved per mouse and cell counts were determined using a hemacytometer (Beckman Coulter, Fullerton, Calif.). Subsequently, differential counts were done on cytospin preparations stained with a modified Giemsa stain, Diff-Quick (Dade Behring AG, Düdingen, Switzerland). Supernatant was stored at −80° C.
Total protein levels in BALF are determined using a Bradford Protein Assay Kit (OZ Biosciences, Marseille, France) according to manufacturers' instructions with bovine serum albumin as standard. Mouse IgM was determined by ELISA by using anti-Mouse IgM sensitized 96-strip micro-well plates according to manufacturers' instructions (IMMUNO-TEK kit from ZeptoMetrix).

LPS induced lung injury = assay: LPS induced lung injury, bronchoalveolar lavage; format: in vivo; details: mice, 6 h after LPS, n = 20
Description: Male C57Bl/6 Mice (Charles River, Germany) were kept at the animal facility of the Medical University of Vienna, feed with standard diet and water was provided ad libitum. All interventions were performed according to the guide lines of AAALAC (Association for Assessment and Accreditation of Laboratory Animal Care). All experiment were approved by the Ethic committee of the Medical University of Vienna. Mice were anesthetized with isoflouran and treated with 100 ng of LPS (E. coli O55:B5, Sigma Aldrich) intranasally. XIB1-a or XIB1-b was applied either intra-peritoneally (2×2 mg/kg) or via inhalation (2×4 mg/kg), first application was performed concomitantly with LPS administration, the second application was performed 1 h after the LPS inhalation.
The trachea was exposed through a midline incision and canulated with a sterile 20-gauge catheter (BD Venflon™, Becton Dickinson Infusion Therapy, Helsingborg, Sweden). Bilateral broncho-alveolar lavage fluid (BALF) was gained by instilling two 0.5 ml aliquots of sterile saline. Approximately 0.9-1 ml BALF was retrieved per mouse. Total cell numbers were counted from each sample using a hemo-cytometer (Türck chamber), BALF differential cell counts were done on cytospin preparations stained with Giemsa. For protein measurements, BALF was diluted 1:2 in buffer containing 300 mM NaCl, 30 mM Tris, 2 mM MgCl2, 2 mM CaCl2, and Pepstatin A, Leupeptin and Aprotinin (all 20 ng/ml; pH 7.4). Protein levels in BALF were measured using the BCA protein kit according to the manufacturer's instructions (Pierce, Rockford, Ill.).
In addition, the same set-up as described above was used for comparing the impact of XIB1-b compared to Bβ15-42 (PLoS ONE (2009), 4(4): e5391), a peptide derived from fibrin having the sequence […] (SEQ ID NO: 41). Bβ15-42 was added in the same manner as XIB1-b. Again, protein content and cell count of BALF was measured.

GEF [5] = assay: GEF-activity in membrane fractions of ECV304 cells (RhoGEF Exchange Assay); format: cell-based; details: ECV 304, Thrombin 1 U/ml, with or without peptide 50 μg/ml
Description: as §1

GEF [6] = assay: GEF-activity in membrane fractions of HpMec cells (RhoGEF Exchange Assay); format: cell-based; details: for increase in GEF-activity: HepMec cells, thrombin; for GEF-activity, relative values compared to unstimulated control (Mean): HpMec, Thrombin 1 U/ml, with or without peptide 50 μg/ml
Description: as §1

GTP-bound RhoA [7] = assay: GTP-associated active RhoA in ECV304 membrane fraction (western blot); format: cell-based; details: ECV 304, Thrombin 1 U/ml, with or without peptide 50 μg/ml
Description: as §2

GTP-bound RhoA [8] = assay: GTP-associated active RhoA in HpMec membrane fraction (western blot); format: cell-based; details: for increase in RhoA-activity: HepMec cells, thrombin; for GTP-bound RhoA, relative values compared to unstimulated control (Mean): HpMec, Thrombin 1 U/ml, with or without peptide 50 μg/ml
Description: as §2

[9] = test system: Phosphorylated Myosin Light Chain (MLC) and actin stress fibers; assay: MLC phosphorylation and actin stress fiber formation in ECV304 cells (microscopy score); format: cell-based; details: ECV 304, Thrombin 1 U/ml, with or without peptide 50 μg/ml
Description: as §3, §4

[10] = test system: Phosphorylated Myosin Light Chain (MLC) and actin stress fibers; assay: MLC phosphorylation and actin stress fiber formation in HpMec cells (microscopy score); format: cell-based; details: Thrombin 1 U/ml, with or without peptide 50 μg/ml
Description: as §3, §4

CCCCCCCCCCCCCC(=O)O[C@@H]1[C@@H](C)[C@@]2(O)[C@@H](C=C(CO)C[C@]3(O)C(=O)C(C)=C[C@@H]23)[C@@H]2C(C)(C)[C@]12OC(C)=O [PMA, reference compound]
GEF-activity, relative values compared to unstimulated control (Mean) (GEF [1]; 1 min): 2.5 | GEF-activity, relative values compared to unstimulated control (Mean) (GEF [1]; 5 min): 1.8 | increase of GEF-activity (GEF [1]; CaCo-2 cells, 1 min PMA-stimulus): 2.5 fold | GTP-bound RhoA, relative values compared to unstimulated control (Mean) (GTP-bound RhoA [2]; 1 min): 2.3 | GTP-bound RhoA, relative values compared to unstimulated control (Mean) (GTP-bound RhoA [2]; 5 min): 2.0 | increase of RhoA-activity (GTP-bound RhoA [2]; after 5 mm of stimulation): 2 fold | increase of RhoA-activity (GTP-bound RhoA [2]; after 1 min): 2.3 fold | MLC phosphorylation and actin stress fiber formation, evaluation score (Mean) ([3]; 1 min): 3 | MLC phosphorylation and actin stress fiber formation, evaluation score (Mean) ([3]; 5 min): 3

GGGGGSRRIPL (/note=“Description of artificial sequence variable insert”) [scrambled peptide, scrambled peptide control in the VILI experiment, reference compound]
IgM content in the BALF [4]: No improvement | neutrophil count in the BALF [4]: No improvement | total cell count in the BALF [4]: No improvement | total protein content in the BALF [4]: No improvement

GHRPLDKKKREEAPSLRPAPPPISGGGYR (/note=“Description of artificial sequence peptide Bbeta 15-42”) [Bβ15-42, a peptide derived from fibrin]
albumine content of BALFs (mean +/ SD) (LPS induced lung injury; comparison with Bβ15-42 (Table 6), intraperitoneal application): 160 ± 20 µg/mL | counts of neutrophils in the BALF (mean +/ SD) (LPS induced lung injury; comparison with Bβ15-42 (Table 6), intratracheal plus intraperitoneal application): 35 +/− 10 neutrophils/ml (× 10^3) | albumine content of BALFs (mean +/ SD) (LPS induced lung injury; comparison with Bβ15-42 (Table 6, last section), intraperitoneal application as printed): 152 ± 35 µg/mL

Thrombin [reference compound]
GEF-activity, relative values compared to unstimulated control (Mean) (GEF [5]; 1 min): 5 | GEF-activity, relative values compared to unstimulated control (Mean) (GEF [5]; 5 min): 3.4 | increase in GEF-activity (GEF [6]; after 1 min): 3.5 fold | increase in GEF-activity (GEF [6]; after 5 min): 3 fold | GEF-activity, relative values compared to unstimulated control (Mean) (GEF [6]; 1 min): 3.5 | GEF-activity, relative values compared to unstimulated control (Mean) (GEF [6]; 5 min): 3 | GTP-bound RhoA, relative values compared to unstimulated control (Mean) (GTP-bound RhoA [7]; 1 min): 4.3 | GTP-bound RhoA, relative values compared to unstimulated control (Mean) (GTP-bound RhoA [7]; 5 min): 3.2 | increase in RhoA-activity (GTP-bound RhoA [8]; after 1 min): 3.8 fold | increase in RhoA-activity (GTP-bound RhoA [8]; after 5 min): 3.2 fold | GTP-bound RhoA, relative values compared to unstimulated control (Mean) (GTP-bound RhoA [8]; 1 min): 3.8 | GTP-bound RhoA, relative values compared to unstimulated control (Mean) (GTP-bound RhoA [8]; 5 min): 3.2 | MLC phosphorylation and actin stress fiber formation, evaluation score (Mean) ([9]; 1 min): 4 | MLC phosphorylation and actin stress fiber formation, evaluation score (Mean) ([9]; 5 min): 4 | MLC phosphorylation and actin stress fiber formation, evaluation score (Mean) ([10]; 1 min): 4 | MLC phosphorylation and actin stress fiber formation, evaluation score (Mean) ([10]; 5 min): 4
